Source: patent US7569547B2, “Inhibiting furin with polybasic peptides” (Board of Supervisors of Louisiana State University and …, priority 2001, dated 2009)
Like-named read-outs stand apart in the source and are kept apart here.

Experiments:
Format in all cases: biochemical
PC2 = molecular target: T1, PC2 (Mus musculus, UniProt P21661); assay: PC2 enzyme assay, hydrolysis of pERTKR-MCA at pH 5.0; parameters: made in house; details: data not shown
T1 sequence (P21661 109-637): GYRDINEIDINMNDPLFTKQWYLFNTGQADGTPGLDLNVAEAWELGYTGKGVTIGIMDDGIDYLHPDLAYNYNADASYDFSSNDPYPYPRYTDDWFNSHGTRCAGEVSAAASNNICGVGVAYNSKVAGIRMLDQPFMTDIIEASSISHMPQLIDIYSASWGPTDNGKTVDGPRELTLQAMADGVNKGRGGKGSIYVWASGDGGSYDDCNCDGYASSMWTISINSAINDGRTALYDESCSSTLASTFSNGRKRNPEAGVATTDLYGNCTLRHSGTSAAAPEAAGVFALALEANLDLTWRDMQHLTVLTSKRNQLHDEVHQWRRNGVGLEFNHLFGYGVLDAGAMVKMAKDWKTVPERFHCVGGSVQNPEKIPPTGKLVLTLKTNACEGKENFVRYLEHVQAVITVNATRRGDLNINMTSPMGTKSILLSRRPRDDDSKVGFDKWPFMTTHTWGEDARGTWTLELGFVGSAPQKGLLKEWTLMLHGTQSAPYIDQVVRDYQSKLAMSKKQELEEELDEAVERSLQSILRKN
Method: The proprotein convertases PC1 and PC2 were prepared by ion exchange chromatography as described in G. Frenette et al., Biochim. Biophys. Acta., vol. 1334, pp. 109-115 (1997).
(§1) Enzyme Assays and Hexapeptide Library Screening. Enzyme assays for PC1 and PC2 were performed at pH 5.0 using pERTKR-MCA (Peptides International Inc., Louisville, Ky.) as described in E. Apletalina et al., J. Biol. Chem., vol. 273, pp. 26589-26595 (1998). The assay for furin was performed using the same substrate at pH 7.0 in 100 mM HEPES, 5 mM CaCl2, 0.1% Brij 35. All assays were performed at 37° C. in a 96 well fluorometer (Labsystems) at an excitation wavelength of 380 nm with emission monitored at a wavelength of 460 nm. The total volume was 50 μL. Unless otherwise stated, the final substrate concentration for all assays was 200 μM. When used in a particular experiment, the inhibitory peptides were pre-incubated with enzyme for 30 min at room temperature prior to addition of substrate. All assays were performed in duplicate or triplicate.

PACE4 = molecular target: T2, PACE4 (Rattus norvegicus, UniProt Q63415); assay: PACE4 enzyme assay, hydrolysis of pERTKR-MCA
T2 construct: made in house; host or cells: stably transfected hEK-293 cells (gift of R. E. Mains), conditioned medium
T2 sequence (Q63415 133-937): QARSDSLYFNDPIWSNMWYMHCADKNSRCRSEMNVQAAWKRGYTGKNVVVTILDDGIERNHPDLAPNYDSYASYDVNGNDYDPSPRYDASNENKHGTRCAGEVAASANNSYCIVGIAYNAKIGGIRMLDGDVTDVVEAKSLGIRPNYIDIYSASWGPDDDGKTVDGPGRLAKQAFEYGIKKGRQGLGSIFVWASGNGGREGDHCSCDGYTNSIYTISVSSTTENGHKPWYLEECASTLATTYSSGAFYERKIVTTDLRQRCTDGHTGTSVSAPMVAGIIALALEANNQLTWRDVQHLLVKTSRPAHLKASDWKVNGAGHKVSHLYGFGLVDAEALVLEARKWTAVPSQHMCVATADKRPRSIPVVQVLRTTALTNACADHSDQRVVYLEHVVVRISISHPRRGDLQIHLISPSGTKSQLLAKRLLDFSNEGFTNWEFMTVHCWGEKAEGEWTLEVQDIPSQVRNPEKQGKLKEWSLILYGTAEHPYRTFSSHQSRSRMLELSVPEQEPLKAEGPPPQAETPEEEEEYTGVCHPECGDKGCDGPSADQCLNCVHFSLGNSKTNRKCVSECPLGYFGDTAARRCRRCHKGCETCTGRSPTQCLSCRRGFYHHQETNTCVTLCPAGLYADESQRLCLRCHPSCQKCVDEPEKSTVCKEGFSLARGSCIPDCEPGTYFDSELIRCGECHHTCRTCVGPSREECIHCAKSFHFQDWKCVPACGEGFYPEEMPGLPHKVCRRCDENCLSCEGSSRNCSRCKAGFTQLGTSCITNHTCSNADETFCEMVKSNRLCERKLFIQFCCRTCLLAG
Method: The proprotein convertase PACE4 was partially purified from an overnight-conditioned medium of stably transfected hEK-293 human embryonic kidney cells (a generous gift of R. E. Mains, Johns Hopkins University School of Medicine, Baltimore, Md.). Briefly, 100 mL of conditioned medium (OptiMEM containing 100 μg/mL aprotinin) was loaded onto an Econo-Pac Q (Bio-Rad) column at 4 mL/min, washed with 10 mL of buffer A, and then eluted with a linear gradient of buffer A containing 500 mM NaCl over 50 mL. The active fractions were then diluted 1:4 with buffer A prior to loading onto a Mono Q column (Pharmacia) at 1 mL/min. The PACE4 was eluted with a linear gradient of buffer A containing 500 mM NaCl over 10 mL. The resulting active fractions were then pooled and stored at −80° C. until use.
as §1

furin = molecular target: T3, furin (Mus musculus, UniProt P23188); assay: Cleavage of polyarginines by furin, HPLC analysis
T3 construct: truncated N-terminally to the transmembrane domain at His^711 using PCR; myc (C, cleaved yes); hexa-His (C, cleaved yes); made in house; host or cells: DG44 CHO cells, conditioned medium
T3 sequence (P23188 108-714 limits assumed): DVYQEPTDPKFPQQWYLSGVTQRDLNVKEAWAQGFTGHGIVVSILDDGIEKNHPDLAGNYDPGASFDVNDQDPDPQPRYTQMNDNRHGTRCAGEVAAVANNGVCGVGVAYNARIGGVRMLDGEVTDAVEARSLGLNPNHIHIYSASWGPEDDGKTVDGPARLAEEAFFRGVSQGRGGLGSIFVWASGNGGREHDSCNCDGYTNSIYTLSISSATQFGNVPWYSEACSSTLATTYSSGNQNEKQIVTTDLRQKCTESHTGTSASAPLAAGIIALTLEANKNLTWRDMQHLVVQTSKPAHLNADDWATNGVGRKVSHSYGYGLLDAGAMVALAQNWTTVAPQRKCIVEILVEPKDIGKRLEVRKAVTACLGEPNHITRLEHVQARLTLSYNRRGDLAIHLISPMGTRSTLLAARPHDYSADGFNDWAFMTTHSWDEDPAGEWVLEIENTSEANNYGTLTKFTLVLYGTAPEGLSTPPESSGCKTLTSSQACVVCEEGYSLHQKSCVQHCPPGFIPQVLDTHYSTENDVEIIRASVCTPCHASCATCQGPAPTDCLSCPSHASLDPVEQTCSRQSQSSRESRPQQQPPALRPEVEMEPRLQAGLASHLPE
Method: Absorbance was monitored at 214 nm. Cleavage products were identified by comparison to polyarginine standards.
Cleavage of Nona-L-arginine (SEQ ID NO 13) and Hexa-L-arginine (SEQ ID NO 14) by Furin. FIGS. 10(a) through (h) depict the cleavage of nona-L-arginine (SEQ ID NO 13) and hexa-L-arginine (SEQ ID NO 14) by furin. Furin (FIGS. (10(b), (c), (d), (e), and (g)) or buffer (FIGS. 10(f) and (h) was incubated with nona-L-arginine (SEQ ID NO 13) (FIGS. 10(b), (c), (d), (e), and (f) or hexa-L-arginine (SEQ ID NO 14) (FIGS. (10(g) and (h) at 37° C. for 0 min (FIG. (10(b)), 40 min (FIG. 10(c)), 6 h (FIG. 10(d)), or 24 h (FIGS. 10(e), (f), (g), and (h) prior to separation by HPLC as described in the experimental procedures. In FIG. 10(a) the simple separation of a standard mixture polyarginines (without enzyme) is shown; the number of residues per poly-L-arginine is indicated by the positions of the arrows at the tops of FIGS. 10(a) and (e).

In the case of `N=C(N)NCCC[C@@H](NC(=O)[C@H](N)CCCN=C(N)N)C(=O)N[C@H](CCCNC(=N)N)C(=O)N[C@H](CCCNC(=N)N)C(=O)N[C@H](CCCNC(=N)N)C(=O)N[C@H](CCCN=C(N)N)C(=O)O` [Hexa-D-arginine], the “effect on PC2 activity” value (PC2) is reported as “no stimulatory or inhibitory effect”, the Ki (PACE4; polyarginine peptides, mean ± S.D., three experiments, read-out: Ki PACE4) is reported as 580 ± 40 nM and the cleavage by furin (furin; after 24 hours incubation) is reported as “essentially no cleavage”.
`N=C(N)NCCC[C@H](NC(=O)[C@H](CCCNC(=N)N)NC(=O)[C@H](CCCNC(=N)N)NC(=O)[C@H](CCCNC(=N)N)NC(=O)[C@H](CCCNC(=N)N)NC(=O)[C@@H](N)CCCNC(=N)N)C(=O)O` [Hexa-L-arginine] was tested, and the “effect on PC2 activity” value (PC2) was “Stimulates PC2 Activity”, the Ki (PACE4) was 520 ± 45 nM and the cleavage by furin (furin; after 24 hours incubation) was “partial digestion”. The cleavage by furin (furin; after six hours incubation) was “essentially no cleavage”.
`N=C(N)NCCC[C@H](NC(=O)[C@H](CCCNC(=N)N)NC(=O)[C@H](CCCNC(=N)N)NC(=O)[C@H](CCCNC(=N)N)NC(=O)[C@H](CCCNC(=N)N)NC(=O)[C@H](CCCNC(=N)N)NC(=O)[C@H](CCCNC(=N)N)NC(=O)[C@H](CCCNC(=N)N)NC(=O)[C@@H](N)CCCNC(=N)N)C(=O)O` [Nona-L-arginine] was tested, and the Ki (PACE4) was 110 ± 13 nM, the “time at which cleavage by furin was first observed” value (furin; 200 μM peptide, 1.7 μM furin, 37° C.) was about 40 min and the original peptide remaining (furin; after four hours with furin, 37° C.) was “essentially none”.
